Bounds are passed on as bounds.

One assay deals with T1, EGFR L858R-T790M (Homo sapiens, UniProt P00533, L858R/T790M).
T1 construct: NCI-H1975 (harboring EGFR heterozygous L858R-T790M mutations); host or cells: NCI-H1975
T1 sequence (P00533 25-1210 T790M/L858R): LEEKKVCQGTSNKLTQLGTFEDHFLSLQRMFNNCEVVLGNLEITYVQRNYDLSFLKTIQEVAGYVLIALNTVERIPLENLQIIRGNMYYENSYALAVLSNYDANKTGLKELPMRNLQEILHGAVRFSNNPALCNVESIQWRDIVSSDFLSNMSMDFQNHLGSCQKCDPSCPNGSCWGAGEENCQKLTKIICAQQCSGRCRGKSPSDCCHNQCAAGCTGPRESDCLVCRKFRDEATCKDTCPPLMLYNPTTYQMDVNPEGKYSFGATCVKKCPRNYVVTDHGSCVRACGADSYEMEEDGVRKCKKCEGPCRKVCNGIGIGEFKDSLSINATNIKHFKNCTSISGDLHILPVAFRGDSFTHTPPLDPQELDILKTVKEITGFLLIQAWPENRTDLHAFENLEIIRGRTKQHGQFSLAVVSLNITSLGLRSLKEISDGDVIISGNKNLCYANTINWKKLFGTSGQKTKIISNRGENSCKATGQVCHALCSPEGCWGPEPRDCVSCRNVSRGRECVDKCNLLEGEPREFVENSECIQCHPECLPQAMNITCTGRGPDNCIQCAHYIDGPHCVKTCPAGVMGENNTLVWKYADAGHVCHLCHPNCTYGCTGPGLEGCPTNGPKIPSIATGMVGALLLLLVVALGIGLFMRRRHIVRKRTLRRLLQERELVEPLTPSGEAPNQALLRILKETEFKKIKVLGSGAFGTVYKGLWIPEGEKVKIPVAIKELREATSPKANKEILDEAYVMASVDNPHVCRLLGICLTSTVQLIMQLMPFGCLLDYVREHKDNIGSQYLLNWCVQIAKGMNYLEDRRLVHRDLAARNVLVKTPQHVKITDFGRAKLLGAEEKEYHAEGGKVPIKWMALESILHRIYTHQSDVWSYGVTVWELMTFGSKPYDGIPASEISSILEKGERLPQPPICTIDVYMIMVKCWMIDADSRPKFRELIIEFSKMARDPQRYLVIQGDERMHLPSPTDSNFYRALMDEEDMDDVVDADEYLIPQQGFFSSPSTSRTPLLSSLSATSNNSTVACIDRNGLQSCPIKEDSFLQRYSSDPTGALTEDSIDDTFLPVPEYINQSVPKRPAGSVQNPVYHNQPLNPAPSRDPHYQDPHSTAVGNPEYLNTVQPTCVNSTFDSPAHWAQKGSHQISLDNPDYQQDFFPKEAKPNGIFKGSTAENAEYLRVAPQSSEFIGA
Put plainly: EGFR degradation, Total EGFR (L858R-specific) HTRF, NCI-H1975. The conditions noted are these: Table 9A; NCI-H1975 cells, 6 hours, Total EGFR HTRF; read-out: H1975 EGFR DC50. It counts as cell-based. The method, boiled down:
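HTRF read-outs: pY1068 phospho-EGFR for IC50; total EGFR (pan-EGFR in A431, L858R-specific in mutant lines) for DC50. Compounds were titrated 11 points, half-log, from 10 μM in duplicate onto cells in 10% FBS RPMI, incubated 6 h at 37°C.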
For the molecule `O=C1CCC(Nc2ccc(C3CCN(C(=O)CN4CCC(c5ccc(-c6cc(F)c7c(c6)C(=O)N(C(C(=O)Nc6nccs6)c6ncn8c6CCC8)C7)cc5)CC4)CC3)cc2)C(=O)N1` (stereo not drawn) [Compound 26, 2-(6,7-dihydro-5H-pyrrolo[1,2-c]imidazol-1-yl)-2-[6-[4-[1-[2-[4-[4-[(2,6-dioxo-3-piperidyl)amino]phenyl]-1-piperidyl]-2-oxo-ethyl]-4-piperidyl]phenyl]-4-fluoro-1-oxo-isoindolin-2-yl]-N-thiazol-2-yl-acetamide], the DC50 is < 0.05 µM.

Staying with this assay, now noted: Table 9B; NCI-H1975 cells, 6 hours, Total EGFR HTRF; read-out: H1975 EGFR DC50.
As to `O=C1CCC(Nc2cc(F)c(N3CCC(O)(CC(=O)N4CC5(CCN(c6ccc(-c7cc(F)c8c(c7)C(=O)N(C(C(=O)Nc7nccs7)c7ncn9c7CCC9)C8)cc6)CC5)C4)CC3)c(F)c2)C(=O)N1` (single isomer, unassigned; isomer 1) [Compound 134, 2-(6,7-dihydro-5H-pyrrolo[1,2-c]imidazol-1-yl)-2-[6-[4-[2-[2-[1-[4-[[2,6-dioxo-3-piperidyl]amino]-2,6-difluoro-phenyl]-4-hydroxy-4-piperidyl]acetyl]-2,7-diazaspiro[3.5]nonan-7-yl]phenyl]-4-fluoro-1-oxo-isoindolin-2-yl]-N-thiazol-2-yl-acetamide, isomer 1], the DC50 is < 0.05 µM.

For `O=C1CCC(Nc2ccc(N3CCC(O)(CC(=O)N4CCC5(CC4)CN(c4ccc(-c6cc(F)c7c(c6)C(=O)N(C(C(=O)Nc6nccs6)c6ncn8c6CCC8)C7)cc4)C5)CC3)c(F)c2)C(=O)N1` (stereo not drawn) [Compound 114, 2-(6,7-dihydro-5H-pyrrolo[1,2-c]imidazol-1-yl)-2-[6-[4-[7-[2-[1-[4-[(2,6-dioxo-3-piperidyl)amino]-2-fluoro-phenyl]-4-hydroxy-4-piperidyl]acetyl]-2,7-diazaspiro[3.5]nonan-2-yl]phenyl]-4-fluoro-1-oxo-isoindolin-2-yl]-N-thiazol-2-yl-acetamide], the DC50 was < 0.05 µM.

Regarding `Cn1nc(N2CCC(=O)NC2=O)c2ccc(C3CCN(CC(=O)N4CC5(CCN(c6ccc(-c7cc(F)c8c(c7)C(=O)N(C(C(=O)Nc7nccs7)c7ncn9c7CCC9)C8)cc6)CC5)C4)CC3(F)F)cc21` (stereo not drawn) [Compound 106, 2-(6,7-dihydro-5H-pyrrolo[1,2-c]imidazol-1-yl)-2-(6-(4-(2-(2-(4-(3-(2,4-dioxotetrahydropyrimidin-1(2H)-yl)-1-methyl-1H-indazol-6-yl)-3,3-difluoropiperidin-1-yl)acetyl)-2,7-diazaspiro[3.5]nonan-7-yl)phenyl)-4-fluoro-1-oxoisoindolin-2-yl)-N-(thiazol-2-yl)acetamide], the DC50 was < 0.05 µM.

With `O=C1CCN(c2ccc(N3CCC(O)(CC(=O)N4CCC5(CC4)CN(c4ccc(-c6cc(F)c7c(c6)C(=O)N(C(C(=O)Nc6nccs6)c6ncn8c6CCC8)C7)cc4)C5)CC3)c(Cl)c2)C(=O)N1` (stereo not drawn) [Compound 170, 2-[6-[4-[7-[2-[1-[2-chloro-4-(2,4-dioxohexahydropyrimidin-1-yl)phenyl]-4-hydroxy-4-piperidyl]acetyl]-2,7-diazaspiro[3.5]nonan-2-yl]phenyl]-4-fluoro-1-oxo-isoindolin-2-yl]-2-(6,7-dihydro-5H-pyrrolo[1,2-c]imidazol-1-yl)-N-thiazol-2-yl-acetamide], the DC50 is < 0.05 µM.

Consider `O=C1CCC(Nc2cnc(N3CCC(O)(CC(=O)N4CC5(C4)CN(c4ccc(-c6cc(F)c7c(c6)C(=O)N(C(C(=O)Nc6nccs6)c6ncn8c6CCC8)C7)cc4)C5)CC3)c(F)c2)C(=O)N1` (stereo not drawn) [Compound 90, 2-(6,7-dihydro-5H-pyrrolo[1,2-c]imidazol-1-yl)-2-(6-(4-(6-(2-(1-(5-((2,6-dioxopiperidin-3-yl)amino)-3-fluoropyridin-2-yl)-4-hydroxypiperidin-4-yl)acetyl)-2,6-diazaspiro[3.3]heptan-2-yl)phenyl)-4-fluoro-1-oxoisoindolin-2-yl)-N-(thiazol-2-yl)acetamide], for which the DC50 was < 0.05 µM.

What is called DC50 is the concentration giving 50% degradation.

Source of the values: patent US20240158418A1 (C4 Therapeutics, Inc., priority 2021, published 2024).
